# Reference: paper PMC11864979, “First-in-class ultralong-target-residence-time p38α inhibitors as a mitosis-targeted therapy for colorectal cancer” (Nature Cancer, 2025)
# pIC50: −log10 of the molar value. Where “and” joins values, the source holds several entries; their conditions need not be identical. Equal values may be shown once.
# Key:
# PDO6 = assay: cell viability in patient-derived CRC organoids PDO6; assay type: cell-based, human
# Procedure: (§1) For in vitro treatment studies, organoids were mechanically dissociated and digested using TrypLE supplemented with 100 µg ml^−1 DNaseI and 10.5 µM Y-27632 dihydrochloride (Invitrogen) at 37 °C. A total of 1,000–2,000 single cells were plated per well in white 96-well plates (Greiner) in culture medium containing 10% GFR Matrigel or Cultrex BME. The treatment with doxycycline (5 µg ml^−1), pharmacological inhibitors or corresponding volumes of DMSO was started 24 h after plating. Doxycycline was obtained from Sigma-Aldrich. […] Cell viability was measured by means of CellTiter-Glo 3D or CellTiter-Glo 2.0 reagent (Promega) according to the manufacturers’ instructions and the Infinite M Plex reader (Tecan, i-control version 3.9.1 software). Results were normalized to vehicle (DMSO) or to shNC. For cell-doubling assays, the cell number was quantified at the corresponding time points using Guava EasyCyte flow cytometer (Luminex, CytoSoft v5.2 software).
# PDO9 = assay: cell viability in patient-derived CRC organoids PDO9; assay type: cell-based, human
# Procedure: as §1
# PDO10 = assay: cell viability in patient-derived CRC organoids PDO10; assay type: cell-based, human
# Procedure: as §1
# PDO14 = assay: cell viability in patient-derived CRC organoids PDO14; assay type: cell-based, human
# Procedure: as §1
# HCT-15 = assay: cell viability in human CRC cell line HCT-15; assay type: cell-based
# Procedure: (§2) To generate KAP^2D cells, KAP organoids were isolated from Matrigel, fragmented by mechanical dissociation and plated without any extracellular matrix on common cell culture dishes. Phoenix-Eco packaging cells (CRL-3214), HCT-15 (CCL-225), HCT 116 (CCL-247), COLO 205 (CCL-222), LS 174T (CL-188), RKO (CRL-2577) and HT-29 (HTB-38) were obtained from the American Type Culture Collection. The cells were cultured at 37 °C and 7% CO2 with RPMI (KAP^2D cells) or DMEM (other cell lines), supplemented with 10% FBS and penicillin–streptomycin. KAP^2D cells were authenticated using PCR (Kras locus and Trp53 locus). Phoenix-Eco packaging cells and HCT-15, HCT 116, COLO 205, LS 174T, RKO and HT-29 cells were authenticated by the provider using short tandem repeat profiling. No commonly misidentified cell lines were used. Mycoplasma contamination was excluded by a PCR-based analysis.
# as §1
# COLO 205 = assay: cell viability in human CRC cell line COLO 205; assay type: cell-based
# Procedure: as §2, §1
# LS 174T = assay: cell viability in human CRC cell line LS 174T; assay type: cell-based; conditions: 4 d
smiles,measurement,setting,value
CNC(=O)c1ccc2c(c1)C(=O)c1ccc(Nc3ccc(F)c(NC(=O)C4CC4)c3)cc1CC2 [Compound 2015],viability at 0.5 µM,"PDO6; Homo sapiens, 96 h, PDO6, 0.5 µM, 4 d",20.6%
same,Cell viability (%),"PDO6; PDO6, 0.5 µM, 4 d, 0.5 µM",31.27% and 20.78%
same,Cell viability (%),"PDO6; PDO6, 1 µM, 4 days, 1 µM",11.74% and 11.40% and 5.21%
same,viability at 0.5 µM,"PDO9; Homo sapiens, 96 h, PDO9, 0.5 µM, 4 d, read-out: Cell viability (%)",20.8%
same,viability at 1 µM,"PDO9; Homo sapiens, 96 h, PDO9, 1 µM, 4 days",9.78%
same,Cell viability (%),"PDO9; PDO9, 0.5 µM, 4 d, 0.5 µM",30.12% and 37.18%
same,Cell viability (%),"PDO9; PDO9, 1 µM, 4 days, 1 µM",8.84% and 14.14%
same,viability at 1 µM,"PDO10; Homo sapiens, 96 h, PDO10, 1 µM, 4 days, read-out: Cell viability (%)",32.9%
same,Cell viability (%),"PDO10; PDO10, 0.5 µM, 4 d, 0.5 µM",34.24% and 30.71% and 56.53%
same,Cell viability (%),"PDO10; PDO10, 1 µM, 4 days, 1 µM",48.68% and 34.77%
same,viability at 1 µM,"PDO14; Homo sapiens, 96 h, PDO14, 1 µM, 4 days, read-out: Cell viability (%)",38%
same,Cell viability (%),"PDO14; PDO14, 0.5 µM, 4 d, 0.5 µM",66.36% and 80.25% and 88.11%
same,Cell viability (%),"PDO14; PDO14, 1 µM, 4 days, 1 µM",35.04% and 42.53%
same,HCT-15 Cell viability (%),"HCT-15; 0.0137 µM, 4 d",103.10% and 103.13% and 91.18% and 87.03% and 85.56%
same,HCT-15 Cell viability (%),"HCT-15; 0.0412 µM, 4 d",84.86% and 83.29% and 102.50% and 98.30% and 96.97%
same,HCT-15 Cell viability (%),"HCT-15; 0.1235 µM, 4 d",82.55% and 82.85% and 86.50% and 79.01% and 79.10%
same,HCT-15 Cell viability (%),"HCT-15; 0.3704 µM, 4 d",32.71% and 35.41% and 27.58% and 24.60% and 25.76%
same,HCT-15 Cell viability (%),"HCT-15; 1.1111 µM, 4 d",27.21% and 26.38% and 23.73% and 21.02% and 21.11%
same,HCT-15 Cell viability (%),"HCT-15; 3.3333 µM, 4 d",22.84% and 23.64% and 17.67% and 16.95% and 16.80%
same,HCT-15 Cell viability (%),"HCT-15; 10.0000 µM, 4 d",23.68% and 23.79% and 17.32% and 16.59% and 17.19%
same,pIC50,"HCT-15; Homo sapiens, 96 h, HCT-15, 4 d of treatment",6.74
same,viability at 0.0137 µM,"HCT-15; Homo sapiens, HCT-15, 96 h, 0.0137 µM, 4 d, read-out: HCT-15 Cell viability (%)",103%
same,viability at 0.0412 µM,"HCT-15; Homo sapiens, HCT-15, 96 h, 0.0412 µM, 4 d, read-out: HCT-15 Cell viability (%)",89.2%
same,viability at 0.1235 µM,"HCT-15; Homo sapiens, HCT-15, 96 h, 0.1235 µM, 4 d, read-out: HCT-15 Cell viability (%)",85.9%
same,viability at 0.3704 µM,"HCT-15; Homo sapiens, HCT-15, 96 h, 0.3704 µM, 4 d, read-out: HCT-15 Cell viability (%)",23.5%
same,viability at 1.1111 µM,"HCT-15; Homo sapiens, HCT-15, 96 h, 1.1111 µM, 4 d, read-out: HCT-15 Cell viability (%)",31.6%
same,viability at 3.3333 µM,"HCT-15; Homo sapiens, HCT-15, 96 h, 3.3333 µM, 4 d, read-out: HCT-15 Cell viability (%)",23.9%
same,viability at 10 µM,"HCT-15; Homo sapiens, HCT-15, 96 h, 10.0000 µM, 4 d, read-out: HCT-15 Cell viability (%)",24.1%
same,COLO 205 Cell viability (%),"COLO 205; 0.0137 µM, 4 d",86.20% and 87.62% and 93.54% and 93.70% and 89.28%
same,COLO 205 Cell viability (%),"COLO 205; 0.0412 µM, 4 d",89.23% and 86.13% and 86.46% and 84.55% and 84.12%
same,COLO 205 Cell viability (%),"COLO 205; 0.1235 µM, 4 d",81.05% and 83.81% and 80.44% and 77.94% and 85.49% and 51.55%
same,COLO 205 Cell viability (%),"COLO 205; 1.1111 µM, 4 d",10.16% and 10.58% and 11.54% and 5.54% and 4.72% and 3.60%
same,COLO 205 Cell viability (%),"COLO 205; 3.3333 µM, 4 d",11.93% and 11.65% and 12.34% and 6.53% and 6.09% and 5.93%
same,COLO 205 Cell viability (%),"COLO 205; 10.0000 µM, 4 d",14.19% and 14.06% and 18.78% and 17.19% and 10.60%
same,pIC50,"COLO 205; Homo sapiens, 96 h, COLO 205, 4 d of treatment",6.82
same,viability at 0.0137 µM,"COLO 205; Homo sapiens, COLO 205, 96 h, 0.0137 µM, 4 d",88.4%
same,viability at 0.0412 µM,"COLO 205; Homo sapiens, COLO 205, 96 h, 0.0412 µM, 4 d",88.8%
same,viability at 10 µM,"COLO 205; Homo sapiens, COLO 205, 96 h, 10.0000 µM, 4 d, read-out: COLO 205 Cell viability (%)",13.9%
same,LS 174T Cell viability (%),LS 174T; 0.0137 µM,96.94% and 94.17% and 83.74% and 81.63% and 85.36%
same,LS 174T Cell viability (%),LS 174T; 0.0412 µM,73.38% and 70.71% and 85.74% and 87.33% and 89.84%
same,LS 174T Cell viability (%),LS 174T; 0.1235 µM,69.97% and 51.36% and 67.79% and 77.35% and 76.20% and 73.53%
same,LS 174T Cell viability (%),LS 174T; 0.3704 µM,24.32% and 25.80% and 26.81% and 26.78% and 26.48%
same,LS 174T Cell viability (%),LS 174T; 1.1111 µM,31.73% and 32.17% and 36.58% and 37.87% and 35.55%
